Assay results published in ChEMBL document CHEMBL1134571, “Photochemical synthesis of N-arylbenzophenanthridine selective estrogen receptor modulators (serms)” (J Med Chem, 2001).
Active and inactive are the calls of the source. No cut-off for these calls is given here.

Experiments:
[1] = test system: MCF7; experiment: Inhibition of 17-beta-estradiol induced MCF-7 cell proliferation;NA=not active; format: functional, cell-based; settings: Homo sapiens
[2] = biological target: Estrogen receptor (Homo sapiens) (UniProt Q92731+P03372); experiment: Relative binding affinity(RBA) as displacement of [3H]17-beta-estradiol from MCF-7 cell lysate;NA=not active; format: cell-based
[3] = test system: MCF7; experiment: Inhibition of 17-beta-estradiol induced MCF-7 cell proliferation; NA=not active; format: functional, cell-based; settings: Homo sapiens
[4] = test system: MCF7; experiment: Inhibition of 17-beta-estradiol induced MCF-7 cell proliferation; format: functional, cell-based; settings: Homo sapiens

Row | IC50 [4] | SMILES | other results
1 | 287 nM | COc1ccc2c(c1)CN(c1ccc(OCCN3CCCCC3)cc1)C1=C2CCc2cc(OC)ccc21 | 
2 | 128 nM | O=c1c2cc(O)ccc2c2c(n1-c1ccc(OCCN3CCCCC3)cc1)-c1ccc(O)cc1CC2 | 
3 | 1 nM | Oc1ccc2c(c1)CN(c1ccc(OCCN3CCCCC3)cc1)c1c-2ccc2cc(O)ccc12 | 

Continued, molecule first:

Row | SMILES | IC50 [4] | other results
4 | O=c1c2cc(O)ccc2c2ccc3cc(O)ccc3c2n1-c1ccc(OCCN2CCCCC2)cc1 |  | NA [1]: inactive
5 | COc1ccc2c(ccc3c4ccc(OC)cc4c(=O)n(-c4ccc(OCCN5CCCCC5)cc4)c23)c1 |  | NA [1]: inactive; NA [2]: inactive
6 | C[C@]12CC[C@@H]3c4ccc(O)cc4CC[C@H]3[C@@H]1CC[C@@H]2O |  | NA [3]: inactive
7 | COc1ccc2c(c1)CN(c1ccc(OCCN3CCCCC3)cc1)c1c-2ccc2cc(OC)ccc12 | 19 nM | 
